In patent publication US20100273696A1, “Composition and method for the prevention and removal of unwanted paint on a surface” (priority 2009, published 2010):

Assays:
[1] = Solubility in water of possible ingredients; type: physicochemical
[2] = Toxicity (hazard class) of possible ingredients; conditions: hazard symbol or 'none'

Row | Compound | Solubility in H2O ([1]; result in words) | Toxicity [2] | Solubility in H2O ([1]; given as percent) [%]
1 | COCCOCCO [diethylene glycol monomethyl ether] | complete |  | 
2 | COCCOCCOCCOCCOC [tetraethylene glycol dimethyl ether] | complete | none | 
3 | CCOCCOCCOCC [diethylene glycol diethyl ether] | complete | none | 
4 | COCCOCCOCCOCCO [tetraethylene glycol monomethyl ether] | complete | none | 
5 | CCCCOCCOCCOCCCC [diethylene glycol dibutyl ether] |  |  | 0.3
6 | CCOC(C)COC(C)CO (centres unmarked) [dipropylene glycol monoethyl ether] | complete | none | 
7 | COCCOCCOCCO [triethylene glycol monomethyl ether] |  | none | 
8 | CCOCCOCCO [diethylene glycol monoethyl ether] | complete | none | 
9 | COC(C)COC(C)CO (centres unmarked) [dipropylene glycol monomethyl ether] | complete | none | 
10 | lauryl ethercarboxylic acid (10 EO) | complete | none | 
11 | PEG-8 Oleate |  | none | 
12 | CCOC(=O)CC(CC(C)=O)C(=O)OCC (centres unmarked) [diethyl acetonyl succinate] |  | none | 
13 | CCCCOC(C)COC(C)COC(C)CO (centres unmarked) [tripropylene glycol monobutyl ether] |  | none | 
14 | COCCOCCOCCOC [triethylene glycol dimethyl ether] | complete | none | 
15 | O=C1CCCO1 [γ-butyrolactone] | complete |  | 
16 | oleyl ethercarboxylic acid (9 EO) | complete | none | 
17 | COCCOCCOC [diethylene glycol dimethyl ether] | complete |  | 
18 | CCCCOCCOCCOC(C)=O [[2-(2-butoxyethoxy)-ethyl]-acetate] |  | none | 6.5
19 | COC(C)COC(C)COC(C)CO (centres unmarked) [tripropylene glycol monomethyl ether] | complete | none | 
20 | CCCOCCOCCOCCC [diethylene glycol dipropyl ether] | complete | none | 
21 | O=C1OCCO1 [ethylene carbonate] |  | none | 
22 | COC(=O)CCC(=O)OC [dimethyl succinate] |  |  | 7.5
23 | CCCOCCOCCO [diethylene glycol monopropyl ether] | complete | none | 
24 | COCC(C)OCC(C)OC (centres unmarked) [dipropylene glycol dimethyl ether] | complete | none | 
25 | octyl ethercarboxylic acid (8 EO) | complete | none | 
26 | CCCOC(C)COC(C)CO (centres unmarked) [dipropylene glycol monopropyl ether] | complete | none | 
27 | C[S+](C)[O-] [dimethyl sulfoxide] | complete | none | 
28 | CC1COC(=O)O1 (centres unmarked) [propylene carbonate] |  |  | 24
29 | CCCCOCCOCCO [diethylene glycol monobutyl ether] |  |  | 10
30 | CN1CCCC1=O [N-methyl-2-pyrrolidinone] | complete |  | 
